According to patent publication US9828413B2, “Vancomycin derivative, and preparation method and application thereof” (ACESYS PHARMA INC., priority 2013, dated 2017):
Values after ≈ are worked out from the molar mass of the structure shown.

Columns and labels:
[1] = test system: Staphylococcus aureus Mu50; experiment: In vitro activity assay, minimum inhibitory concentration (MIC), cup-plate method; type: cell-based; settings: strain Mu50, trypticase soy broth, read-out: MIC values, Staphylococcus aureus Mu50
Description: (§1) In vitro activity assay was performed according to Microbiological Identification of Antibiotics, Appendix XIA, Volume II, Chinese Pharmacopoeia 2010. Vancomycin-sensitive Staphylococcus aureus strains (Newman and Mu 50) were selected as the test strains, and trypticase soy broth was selected as the culture medium.

[2] = test system: Staphylococcus aureus Newman; experiment: as above; type: cell-based; settings: strain Newman, trypticase soy broth, read-out: MIC values, Staphylococcus aureus Newman
Description: as §1

physchem = settings: 25 °C, water, thermodynamic from solid

Row | SMILES | MIC [1] [µg/mL] | MIC [2] [µg/mL] | solubility at 30 min (physchem) [mg/mL]
1 | CN[C@H](CC(C)C)C(=O)NC1C(=O)N[C@@H](CC(N)=O)C(=O)N[C@H]2C(=O)NC3C(=O)N[C@H](C(=O)N[C@@H](C(=O)O)c4cc(O)cc(O)c4-c4cc3ccc4O)[C@H](OC3CC(C)(N)C(O)C(C)O3)c3ccc(c(Cl)c3)Oc3cc2cc(c3OC2OC(CO)C(O)C(O)C2OC2CC(C)(NCC(OCc3cccc(-c4ccc(Cl)cc4)c3)C(=O)O)C(O)C(C)O2)Oc2ccc(cc2Cl)[C@H]1O (stereo partly drawn) [Compound V65] | 2 (≈ 1.06 µM) | < 0.125 | 5 to 20 (≈ 2660 to 10600 µM)
2 | CN[C@H](CC(C)C)C(=O)NC1C(=O)N[C@@H](CC(N)=O)C(=O)N[C@H]2C(=O)NC3C(=O)N[C@H](C(=O)N[C@@H](C(=O)O)c4cc(O)cc(O)c4-c4cc3ccc4O)[C@H](O)c3ccc(c(Cl)c3)Oc3cc2cc(c3OC2OC(CO)C(O)C(O)C2OC2CC(C)(NCC(OCc3ccccc3)C(=O)OC)C(O)C(C)O2)Oc2ccc(cc2Cl)[C@H]1O (stereo partly drawn) [Compound V9] | 32 (≈ 19.5 µM) | 8 (≈ 4.87 µM) | < 0.1
3 | CC(C)C[C@@H](N)C(=O)N[C@@H]1C(=O)NC(CC(N)=O)C(=O)NC2C(=O)NC3C(=O)N[C@H](C(=O)NC(C(=O)O)c4cc(O)cc(O)c4-c4cc3ccc4O)[C@H](OC3CC(C)(N)C(O)C(C)O3)c3ccc(c(Cl)c3)Oc3cc2cc(c3OC2OC(CO)C(O)C(O)C2OC2CC(C)(NCC(OCc3ccc(-c4ccc(Cl)cc4)cc3)C(=O)O)C(O)C(C)O2)Oc2ccc(cc2Cl)C1O (stereo partly drawn) [Compound V66] | 2 (≈ 1.07 µM) | < 0.125 | 5 to 20 (≈ 2680 to 10700 µM)
4 | CC(C)C[C@@H](N)C(=O)NC1C(=O)N[C@@H](CC(N)=O)C(=O)N[C@H]2C(=O)NC3C(=O)N[C@H](C(=O)N[C@@H](C(=O)O)c4cc(O)cc(O)c4-c4cc3ccc4O)[C@H](O)c3ccc(c(Cl)c3)Oc3cc2cc(c3OC2OC(CO)C(O)C(O)C2OC2CC(C)(NCC(OCc3ccc(-c4ccccc4)cc3)C(=O)O)C(O)C(C)O2)Oc2ccc(cc2Cl)[C@H]1O (stereo partly drawn) [Compound V53] | 2 (≈ 1.18 µM) | < 0.125 | 20 (≈ 11800 µM)
5 | COC(=O)C(CNC1(C)CC(OC2C(Oc3c4cc5cc3Oc3ccc(cc3Cl)[C@@H](O)[C@@H]3NC(=O)C(NC(=O)[C@@H]5NC(=O)[C@H](CC(N)=O)NC(=O)C(NC(=O)[C@H](N)CC(C)C)[C@H](O)c5ccc(c(Cl)c5)O4)c4ccc(O)c(c4)-c4c(O)cc(O)cc4[C@H](C(=O)O)NC3=O)OC(CO)C(O)C2O)OC(C)C1O)OCc1ccc(-c2ccc(Cl)cc2)cc1 (stereo partly drawn) [Compound V55] | 2 (≈ 1.15 µM) | < 0.125 | 3 (≈ 1730 µM)
6 | CN[C@H](CC(C)C)C(=O)N[C@@H]1C(=O)NC(CC(N)=O)C(=O)NC2C(=O)NC3C(=O)N[C@H](C(=O)NC(C(=O)O)c4cc(O)cc(O)c4-c4cc3ccc4O)[C@H](OC3CC(C)(N)C(O)C(C)O3)c3ccc(c(Cl)c3)Oc3cc2cc(c3OC2OC(CO)C(O)C(O)C2OC2CC(C)(NCC(OCc3ccc(-c4ccccc4Cl)cc3)C(=O)O)C(O)C(C)O2)Oc2ccc(cc2Cl)C1O (stereo partly drawn) [Compound V64] | 2 (≈ 1.06 µM) | < 0.125 | 5 to 20 (≈ 2660 to 10600 µM)
7 | COC(=O)C(CNC1(C)CC(OC2C(Oc3c4cc5cc3Oc3ccc(cc3Cl)[C@@H](O)[C@@H]3NC(=O)C(NC(=O)C5NC(=O)C(CC(N)=O)NC(=O)[C@@H](NC(=O)[C@H](N)CC(C)C)C(O)c5ccc(c(Cl)c5)O4)c4ccc(O)c(c4)-c4c(O)cc(O)cc4C(C(=O)O)NC3=O)OC(CO)C(O)C2O)OC(C)C1O)OCc1ccc(Cl)cc1 (stereo partly drawn) [Compound V52] | 2 (≈ 1.2 µM) | < 0.125 | 20 (≈ 12000 µM)
8 | CN[C@H](CC(C)C)C(=O)NC1C(=O)N[C@@H](CC(N)=O)C(=O)N[C@H]2C(=O)NC3C(=O)N[C@H](C(=O)N[C@@H](C(=O)O)c4cc(O)cc(O)c4-c4cc3ccc4O)[C@H](O)c3ccc(c(Cl)c3)Oc3cc2cc(c3OC2OC(CO)C(O)C(O)C2OC2CC(C)(NCC(OCc3ccc(C)cc3)C(=O)O)C(O)C(C)O2)Oc2ccc(cc2Cl)[C@H]1O (stereo partly drawn) [Compound V23] | 8 (≈ 4.87 µM) | 2 (≈ 1.22 µM) | > 8
9 | CN[C@H](CC(C)C)C(=O)NC1C(=O)N[C@@H](CC(N)=O)C(=O)N[C@H]2C(=O)NC3C(=O)N[C@H](C(=O)N[C@@H](C(=O)O)c4cc(O)cc(O)c4-c4cc3ccc4O)[C@H](O)c3ccc(c(Cl)c3)Oc3cc2cc(c3OC2OC(CO)C(O)C(O)C2OC2CC(C)(NCC(OCc3ccccc3)C(=O)O)C(O)C(C)O2)Oc2ccc(cc2Cl)[C@H]1O (stereo partly drawn) [Compound V11] | 32 (≈ 19.7 µM) | 8 (≈ 4.92 µM) | 50 to 60 (≈ 30700 to 36900 µM)
10 | CCCCCCCCCCOC(CNC1(C)CC(OC2C(Oc3c4cc5cc3Oc3ccc(cc3Cl)[C@@H](O)[C@@H]3NC(=O)C(NC(=O)C5NC(=O)C(CC(N)=O)NC(=O)[C@@H](NC(=O)[C@H](N)CC(C)C)C(O)c5ccc(c(Cl)c5)O4)c4ccc(O)c(c4)-c4c(O)cc(O)cc4C(C(=O)O)NC3=O)OC(CO)C(O)C2O)OC(C)C1O)C(=O)O (stereo partly drawn) [Compound V68] | 8 (≈ 4.81 µM) | 4 (≈ 2.4 µM) | 5 to 10 (≈ 3010 to 6010 µM)
11 | CC(C)C[C@@H](N)C(=O)N[C@@H]1C(=O)NC(CC(N)=O)C(=O)NC2C(=O)NC3C(=O)N[C@H](C(=O)NC(C(=O)O)c4cc(O)cc(O)c4-c4cc3ccc4O)[C@H](O)c3ccc(c(Cl)c3)Oc3cc2cc(c3OC2OC(CO)C(O)C(O)C2OC2CC(C)(NCC(OCc3ccccc3)C(=O)O)C(O)C(C)O2)Oc2ccc(cc2Cl)C1O (stereo partly drawn) [Compound V51] | 32 (≈ 19.8 µM) | 8 (≈ 4.96 µM) | 20 (≈ 12400 µM)
12 | CCCCCCCCCCOC(CNC1(C)CC(OC2C(Oc3c4cc5cc3Oc3ccc(cc3Cl)[C@@H](OC3CC(C)(N)C(O)C(C)O3)[C@@H]3NC(=O)C(NC(=O)C5NC(=O)C(CC(N)=O)NC(=O)[C@@H](NC(=O)[C@@H](CC(C)C)NC)C(O)c5ccc(c(Cl)c5)O4)c4ccc(O)c(c4)-c4c(O)cc(O)cc4C(C(=O)O)NC3=O)OC(CO)C(O)C2O)OC(C)C1O)C(=O)O (stereo partly drawn) [Compound V69] | 8 (≈ 4.39 µM) | 2 (≈ 1.1 µM) | 5 to 10 (≈ 2750 to 5490 µM)

The remaining lines, values ahead:

Row | MIC [1] [µg/mL] | MIC [2] [µg/mL] | solubility at 30 min (physchem) [mg/mL] | SMILES
13 | 8 (≈ 4.89 µM) | 2 (≈ 1.22 µM) | < 1 | CCCCCCOC(CNC1(C)CC(OC2C(Oc3c4cc5cc3Oc3ccc(cc3Cl)[C@@H](O)[C@@H]3NC(=O)C(NC(=O)C5NC(=O)C(CC(N)=O)NC(=O)[C@@H](NC(=O)[C@@H](CC(C)C)NC)C(O)c5ccc(c(Cl)c5)O4)c4ccc(O)c(c4)-c4c(O)cc(O)cc4C(C(=O)O)NC3=O)OC(CO)C(O)C2O)OC(C)C1O)C(=O)OC (stereo partly drawn) [Compound V31]
14 | 64 (≈ 39.8 µM) | 16 (≈ 9.95 µM) | ≥ 60 | CCCCOC(CNC1(C)CC(OC2C(Oc3c4cc5cc3Oc3ccc(cc3Cl)[C@@H](O)[C@@H]3NC(=O)C(NC(=O)C5NC(=O)C(CC(N)=O)NC(=O)[C@@H](NC(=O)[C@@H](CC(C)C)NC)C(O)c5ccc(c(Cl)c5)O4)c4ccc(O)c(c4)-c4c(O)cc(O)cc4C(C(=O)O)NC3=O)OC(CO)C(O)C2O)OC(C)C1O)C(=O)OC (stereo partly drawn) [Compound V16]
15 | 8 (≈ 4.83 µM) | 2 (≈ 1.21 µM) | < 5 | CN[C@H](CC(C)C)C(=O)N[C@@H]1C(=O)NC(CC(N)=O)C(=O)NC2C(=O)NC3C(=O)N[C@H](C(=O)NC(C(=O)O)c4cc(O)cc(O)c4-c4cc3ccc4O)[C@H](O)c3ccc(c(Cl)c3)Oc3cc2cc(c3OC2OC(CO)C(O)C(O)C2OC2CC(C)(NCC(OCc3ccc(C)cc3)C(=O)OC)C(O)C(C)O2)Oc2ccc(cc2Cl)C1O (stereo partly drawn) [Compound V22]
16 | 64 (≈ 40.5 µM) | 16 (≈ 10.1 µM) | 5 (≈ 3170 µM) | CCOC(CNC1(C)CC(OC2C(Oc3c4cc5cc3Oc3ccc(cc3Cl)[C@@H](O)[C@@H]3NC(=O)C(NC(=O)C5NC(=O)C(CC(N)=O)NC(=O)[C@@H](NC(=O)[C@@H](CC(C)C)NC)C(O)c5ccc(c(Cl)c5)O4)c4ccc(O)c(c4)-c4c(O)cc(O)cc4C(C(=O)O)NC3=O)OC(CO)C(O)C2O)OC(C)C1O)C(=O)OC (stereo partly drawn) [Compound V33]
17 | > 128 | 64 (≈ 40.5 µM) | 50 to 60 (≈ 31700 to 38000 µM) | CCCCOC(CNC1(C)CC(OC2C(Oc3c4cc5cc3Oc3ccc(cc3Cl)[C@@H](O)[C@@H]3NC(=O)C(NC(=O)C5NC(=O)C(CC(N)=O)NC(=O)[C@@H](NC(=O)[C@H](N)CC(C)C)C(O)c5ccc(c(Cl)c5)O4)c4ccc(O)c(c4)-c4c(O)cc(O)cc4C(C(=O)O)NC3=O)OC(CO)C(O)C2O)OC(C)C1O)C(=O)O (stereo partly drawn) [Compound V58]
18 | > 128 | 64 (≈ 40.2 µM) | 50 to 60 (≈ 31400 to 37700 µM) | CCCCOC(CNC1(C)CC(OC2C(Oc3c4cc5cc3Oc3ccc(cc3Cl)[C@@H](O)[C@@H]3NC(=O)C(NC(=O)[C@@H]5NC(=O)[C@H](CC(N)=O)NC(=O)C(NC(=O)[C@@H](CC(C)C)NC)[C@H](O)c5ccc(c(Cl)c5)O4)c4ccc(O)c(c4)-c4c(O)cc(O)cc4[C@H](C(=O)O)NC3=O)OC(CO)C(O)C2O)OC(C)C1O)C(=O)O (stereo partly drawn) [Compound V19]
19 | 64 (≈ 41.3 µM) | 16 (≈ 10.3 µM) | 20 (≈ 12900 µM) | CN[C@H](CC(C)C)C(=O)NC1C(=O)N[C@@H](CC(N)=O)C(=O)N[C@H]2C(=O)NC3C(=O)N[C@H](C(=O)N[C@@H](C(=O)O)c4cc(O)cc(O)c4-c4cc3ccc4O)[C@H](O)c3ccc(c(Cl)c3)Oc3cc2cc(c3OC2OC(CO)C(O)C(O)C2OC2CC(C)(NCC(OC)C(=O)O)C(O)C(C)O2)Oc2ccc(cc2Cl)[C@H]1O (stereo partly drawn) [Compound V27]
